Publication PMC12057336 (Antimicrobial Agents and Chemotherapy, 2025)
Where two headings read alike, the source gives them in different places.

How the values were obtained:
[1] = Tissue distribution after i.g. or i.v. linezolid in control, CCl4-induced and 5/6 Nx rats; type: in vivo, rat; conditions: for Kp at 1 h / Kp at 4 h / Kp at 0.5 h: rat
Excerpt: These two groups were further divided into the following three subgroups (n = 4): control rats, CCl4-induced rats, and 5/6 Nx rats. […] The rats were euthanized immediately after blood sampling. The brain, heart, lungs, liver, kidneys, and small intestine were collected. The collected tissues were washed and homogenized in normal saline (three-fold volume of each sample weight) using a multi-sample tissue grinder (Tissuelyser-48L; Shanghai Jingxin Industrial Development Co. Ltd., Shanghai, China). After centrifugation of the homogenate samples at 12,000 × g for 10 min at 4°C, the supernatants were stored at −80°C.
The flow rate was 1.0 mL/min.
Then, 5 µL of the supernatant was analyzed.

[2] = tested on: OCT3; set-up: method as in PMID 27645247, PMID 26976869, PMID 27550354; conditions: cited from earlier work
[3] = liver, oral, 63 mg/kg, i.g. 63 mg/kg linezolid, 5/6 Nx rats, read-out: Tissue/plasma concentration ratio, Liver
[4] = liver, oral, 63 mg/kg, i.g. 63 mg/kg linezolid, CCl4-induced rats, read-out: Tissue/plasma concentration ratio, Liver
[5] = liver, oral, 63 mg/kg, i.g. 63 mg/kg linezolid, control rats, read-out: Tissue/plasma concentration ratio, Liver
[6] = lung, iv, 25 mg/kg, i.v. 25 mg/kg linezolid, 5/6 Nx rats, read-out: Tissue/plasma concentration ratio, Lung
[7] = lung, iv, 25 mg/kg, i.v. 25 mg/kg linezolid, CCl4-induced rats, read-out: Tissue/plasma concentration ratio, Lung
[8] = lung, iv, 25 mg/kg, i.v. 25 mg/kg linezolid, control rats, read-out: Tissue/plasma concentration ratio, Lung
[9] = lung, oral, 63 mg/kg, i.g. 63 mg/kg linezolid, 5/6 Nx rats, read-out: Tissue/plasma concentration ratio, Lung
[10] = lung, oral, 63 mg/kg, i.g. 63 mg/kg linezolid, CCl4-induced rats, read-out: Tissue/plasma concentration ratio, Lung
[11] = lung, oral, 63 mg/kg, i.g. 63 mg/kg linezolid, control rats, read-out: Tissue/plasma concentration ratio, Lung
[12] = small intestine, iv, 25 mg/kg, i.v. 25 mg/kg linezolid, 5/6 Nx rats, read-out: Tissue/plasma concentration ratio, Small intestine
[13] = small intestine, iv, 25 mg/kg, i.v. 25 mg/kg linezolid, CCl4-induced rats, read-out: Tissue/plasma concentration ratio, Small intestine
[14] = small intestine, iv, 25 mg/kg, i.v. 25 mg/kg linezolid, control rats, read-out: Tissue/plasma concentration ratio, Small intestine
[15] = small intestine, oral, 63 mg/kg, i.g. 63 mg/kg linezolid, 5/6 Nx rats, read-out: Tissue/plasma concentration ratio, Small intestine
[16] = small intestine, oral, 63 mg/kg, i.g. 63 mg/kg linezolid, CCl4-induced rats, read-out: Tissue/plasma concentration ratio, Small intestine
[17] = small intestine, oral, 63 mg/kg, i.g. 63 mg/kg linezolid, control rats, read-out: Tissue/plasma concentration ratio, Small intestine

**Q.** Which Kp at 1 h ([1]; liver (homogenate) relative to plasma, iv, 25 mg/kg, i.v. 25 mg/kg linezolid, 5/6 Nx rats, read-out: Tissue/plasma concentration ratio, Liver) does the source give for `CC(=O)NC[C@H]1CN(c2ccc(N3CCOCC3)c(F)c2)C(=O)O1` [Linezolid] here?
**A.** The Kp at 1 h was 1.11 ± 0.34.

**Q.** And the Kp at 1 h ([1]; liver (homogenate) relative to plasma, iv, 25 mg/kg, i.v. 25 mg/kg linezolid, control rats, read-out: Tissue/plasma concentration ratio, Liver)?
**A.** Its Kp at 1 h is 0.6 ± 0.38.

**Q.** What about the Kp at 4 h ([1]; liver, iv, 25 mg/kg, i.v. 25 mg/kg linezolid, 5/6 Nx rats, read-out: Tissue/plasma concentration ratio, Liver) of the same molecule?
**A.** The Kp at 4 h was 1.39 ± 0.4.

**Q.** What about the Kp at 4 h ([1]; liver, iv, 25 mg/kg, i.v. 25 mg/kg linezolid, CCl4-induced rats, read-out: Tissue/plasma concentration ratio, Liver) of the same molecule?
**A.** The Kp at 4 h was 1.19 ± 0.85.

**Q.** What about the Kp at 4 h ([1]; liver, iv, 25 mg/kg, i.v. 25 mg/kg linezolid, control rats, read-out: Tissue/plasma concentration ratio, Liver) of the same molecule?
**A.** The Kp at 4 h was 1.3 ± 0.36.

**Q.** And the Kp at 0.5 h [1, 3]?
**A.** Its Kp at 0.5 h is 1.25 ± 0.6.

**Q.** What about the Kp at 0.5 h [1, 4] of the same molecule?
**A.** Its Kp at 0.5 h is 1.06 ± 0.44.

**Q.** And the Kp at 0.5 h [1, 5]?
**A.** Its Kp at 0.5 h is 1.64 ± 0.75.

**Q.** What about the Kp at 1 h [1, 3] of the same molecule?
**A.** Its Kp at 1 h is 1.37 ± 0.41.

**Q.** And the Kp at 1 h [1, 4]?
**A.** Its Kp at 1 h is 1.19 ± 0.18.

**Q.** And the Kp at 1 h [1, 5]?
**A.** Its Kp at 1 h is 0.78 ± 0.14.

**Q.** And the Kp at 4 h [1, 3]?
**A.** The Kp at 4 h was 1 ± 0.11.

**Q.** And the Kp at 4 h [1, 4]?
**A.** Its Kp at 4 h is 0.93 ± 0.31.

**Q.** What about the Kp at 4 h [1, 5] of the same molecule?
**A.** Its Kp at 4 h is 1.06 ± 0.16.

**Q.** And the Kp at 0.5 h [1, 6]?
**A.** Its Kp at 0.5 h is 0.87 ± 0.03.

**Q.** What about the Kp at 0.5 h [1, 7] of the same molecule?
**A.** Its Kp at 0.5 h is 0.55 ± 0.34.

**Q.** What about the Kp at 0.5 h [1, 8] of the same molecule?
**A.** The Kp at 0.5 h was 0.42 ± 0.25.

**Q.** And the Kp at 1 h [1, 6]?
**A.** Its Kp at 1 h is 0.91 ± 0.08.

**Q.** What about the Kp at 1 h [1, 7] of the same molecule?
**A.** Its Kp at 1 h is 0.66 ± 0.08.

**Q.** What about the Kp at 1 h [1, 8] of the same molecule?
**A.** The Kp at 1 h was 0.25 ± 0.18.

**Q.** And the Kp at 4 h [1, 6]?
**A.** The Kp at 4 h was 0.74 ± 0.2.

**Q.** And the Kp at 4 h [1, 7]?
**A.** The Kp at 4 h was 0.85 ± 0.14.

**Q.** And the Kp at 4 h [1, 8]?
**A.** The Kp at 4 h was 0.45 ± 0.46.

**Q.** And the Kp at 0.5 h [1, 9]?
**A.** Its Kp at 0.5 h is 0.86 ± 0.38.

**Q.** What about the Kp at 0.5 h [1, 10] of the same molecule?
**A.** The Kp at 0.5 h was 0.68 ± 0.16.

**Q.** And the Kp at 0.5 h [1, 11]?
**A.** The Kp at 0.5 h was 0.67 ± 0.13.

**Q.** What about the Kp at 1 h [1, 9] of the same molecule?
**A.** Its Kp at 1 h is 0.94 ± 0.18.

**Q.** And the Kp at 1 h [1, 10]?
**A.** The Kp at 1 h was 0.66 ± 0.05.

**Q.** What about the Kp at 1 h [1, 11] of the same molecule?
**A.** Its Kp at 1 h is 0.07 ± 0.03.

**Q.** And the Kp at 4 h [1, 9]?
**A.** The Kp at 4 h was 0.82 ± 0.09.

**Q.** And the Kp at 4 h [1, 10]?
**A.** Its Kp at 4 h is 0.6 ± 0.04.

**Q.** What about the Kp at 4 h [1, 11] of the same molecule?
**A.** The Kp at 4 h was 0.46 ± 0.15.

**Q.** What about the Kp at 0.5 h [1, 12] of the same molecule?
**A.** Its Kp at 0.5 h is 1.19 ± 0.31.

**Q.** And the Kp at 0.5 h [1, 13]?
**A.** Its Kp at 0.5 h is 0.66 ± 0.05.

**Q.** And the Kp at 0.5 h [1, 14]?
**A.** Its Kp at 0.5 h is 0.42 ± 0.21.

**Q.** What about the Kp at 1 h [1, 12] of the same molecule?
**A.** The Kp at 1 h was 0.77 ± 0.34.

**Q.** What about the Kp at 1 h [1, 13] of the same molecule?
**A.** Its Kp at 1 h is 0.69 ± 0.05.

**Q.** And the Kp at 1 h [1, 14]?
**A.** The Kp at 1 h was 0.21 ± 0.01.

**Q.** What about the Kp at 4 h [1, 12] of the same molecule?
**A.** The Kp at 4 h was 0.73 ± 0.07.

**Q.** And the Kp at 4 h [1, 13]?
**A.** The Kp at 4 h was 0.71 ± 0.09.

**Q.** And the Kp at 4 h [1, 14]?
**A.** The Kp at 4 h was 0.47 ± 0.42.

**Q.** And the Kp at 0.5 h [1, 15]?
**A.** The Kp at 0.5 h was 2.48 ± 0.76.

**Q.** And the Kp at 0.5 h [1, 16]?
**A.** The Kp at 0.5 h was 0.93 ± 0.26.

**Q.** And the Kp at 0.5 h [1, 17]?
**A.** The Kp at 0.5 h was 0.35 ± 0.21.

**Q.** What about the Kp at 1 h [1, 15] of the same molecule?
**A.** Its Kp at 1 h is 1.28 ± 0.29.

**Q.** And the Kp at 1 h [1, 16]?
**A.** Its Kp at 1 h is 0.9 ± 0.09.

**Q.** What about the Kp at 1 h [1, 17] of the same molecule?
**A.** Its Kp at 1 h is 0.33 ± 0.22.

**Q.** What about the Kp at 4 h [1, 15] of the same molecule?
**A.** The Kp at 4 h was 0.9 ± 0.31.

**Q.** And the Kp at 4 h [1, 16]?
**A.** Its Kp at 4 h is 1.11 ± 0.07.

**Q.** And the Kp at 4 h [1, 17]?
**A.** Its Kp at 4 h is 0.6 ± 0.18.

**Q.** And the “accumulation in brain, heart, lung, liver, kidney, or small intestinal tissues” value ([1]; within 4 hours after i.g. and i.v. administration, hepatic impairment or renal failure rats)?
**A.** Its value is “did not accumulate”.

**Q.** What about the “inhibitor of OCT3” value [2] of the same molecule?
**A.** The value was “not an inhibitor”.
